± gives the uncertainty stated by the source.
Experiment: xn = mol fraction of the nth substance listed

CC(=O)C(=O)O + CC[N+](CC)(CC)CC.[Cl-]
101.3 kPa, x2 = 0.3333
Conditions | viscosity [mPa·s]
298.15 K | 89.1 ± 6.8
308.15 K | 57.5 ± 1.3
318.15 K | 37.5 ± 1.2
328.15 K | 24.05 ± 0.8
338.15 K | 16.05 ± 0.54

CCCC[n+]1ccn(C)c1.[Cl-] + CCO
101 kPa
Conditions | electrical conductivity [S/m] | viscosity [mPa·s]
293.15 K, x2 = 0.9501 | – | 1.78 ± 0.39
298.15 K, x2 = 0.7003 | 1.07 ± 0.02 | 10.1 ± 1.6
298.15 K, x2 = 0.8002 | 1.45 ± 0.03 | 4.59 ± 0.81
303.15 K, x2 = 0.4991 | – | 49.8 ± 7.6
303.15 K, x2 = 0.6011 | – | 20.7 ± 3.2
303.15 K, x2 = 0.9501 | – | 1.47 ± 0.34

[Cl-].[Li+] + CCCC[n+]1ccn(C)c1.N#C[S-] + CN1CCCC1=O
298.15 K, 101 kPa
Conditions | viscosity [mPa·s]
x2 = 0, x1 = 0.03819 | 2.63 ± 0.035
x2 = 0, x1 = 0.07228 | 3.56 ± 0.046
x2 = 0, x1 = 0.1042 | 4.958 ± 0.064

CCCCCCCCCCCCCCCC[n+]1ccccc1.O=C([O-])c1ccccc1O + CC(C)C[C@H](N)C(=O)O + O
electrical conductivity [S/m], 101 kPa
Conditions | 293.15 K | 298.15 K | 303.15 K | 308.15 K | 313.15 K
x2 = 0.0009002, x1 = 3.6e-07 | 0.000905 ± 5.4e-05 | 0.00101 ± 6.1e-05 | 0.00113 ± 6.8e-05 | 0.00125 ± 7.5e-05 | 0.00138 ± 8.3e-05
x2 = 0.0009002, x1 = 7.2e-07 | 0.00104 ± 6.2e-05 | 0.00117 ± 7e-05 | 0.0013 ± 7.8e-05 | 0.00144 ± 8.6e-05 | 0.00159 ± 9.5e-05
x2 = 0.0009002, x1 = 9.1e-07 | 0.00119 ± 7.1e-05 | 0.00133 ± 8.1e-05 | 0.00148 ± 8.9e-05 | 0.00164 ± 9.8e-05 | 0.00181 ± 0.00011
x2 = 0.0009002, x1 = 1.27e-06 | 0.00132 ± 7.9e-05 | 0.00148 ± 8.9e-05 | 0.00165 ± 9.9e-05 | 0.00183 ± 0.00011 | 0.00201 ± 0.00012
x2 = 0.0009002, x1 = 1.63e-06 | 0.00147 ± 8.9e-05 | 0.00166 ± 9.9e-05 | 0.00184 ± 0.00011 | 0.00204 ± 0.00012 | 0.00225 ± 0.00014
x2 = 0.0009002, x1 = 1.99e-06 | 0.00163 ± 9.8e-05 | 0.00185 ± 0.00011 | 0.00207 ± 0.00012 | 0.00229 ± 0.00014 | 0.00253 ± 0.00015
x2 = 0.0009002, x1 = 2.54e-06 | 0.00179 ± 0.00011 | 0.00203 ± 0.00012 | 0.00229 ± 0.00014 | 0.00255 ± 0.00015 | 0.00282 ± 0.00017
x2 = 0.0009002, x1 = 2.9e-06 | – | – | – | 0.00275 ± 0.00017 | 0.00309 ± 0.00019
x2 = 0.0009002, x1 = 3.08e-06 | 0.00192 ± 0.00012 | 0.00218 ± 0.00013 | 0.00246 ± 0.00015 | – | –
x2 = 0.0009002, x1 = 3.44e-06 | 0.00203 ± 0.00012 | 0.00231 ± 0.00014 | 0.00263 ± 0.00016 | 0.00297 ± 0.00018 | 0.00331 ± 0.0002
x2 = 0.0009002, x1 = 3.81e-06 | – | 0.00243 ± 0.00015 | 0.00276 ± 0.00017 | 0.00311 ± 0.00019 | 0.00348 ± 0.00021
x2 = 0.0009002, x1 = 3.99e-06 | 0.00214 ± 0.00013 | – | – | – | –
x2 = 0.0009002, x1 = 4.35e-06 | 0.00224 ± 0.00013 | 0.00256 ± 0.00015 | 0.00289 ± 0.00017 | 0.00327 ± 0.0002 | 0.00366 ± 0.00022
x2 = 0.0009002, x1 = 4.71e-06 | 0.00235 ± 0.00014 | 0.00268 ± 0.00016 | 0.00303 ± 0.00018 | 0.00342 ± 0.00021 | 0.00383 ± 0.00023
x2 = 0.0009002, x1 = 5.07e-06 | – | – | 0.00316 ± 0.00019 | 0.00356 ± 0.00021 | 0.00399 ± 0.00024
x2 = 0.0009002, x1 = 5.26e-06 | 0.00246 ± 0.00015 | 0.0028 ± 0.00017 | – | – | –
x2 = 0.0009002, x1 = 5.62e-06 | 0.00255 ± 0.00015 | 0.0029 ± 0.00017 | 0.00328 ± 0.0002 | 0.00369 ± 0.00022 | 0.00415 ± 0.00025
x2 = 0.0009002, x1 = 5.98e-06 | 0.00266 ± 0.00016 | 0.00302 ± 0.00018 | 0.00341 ± 0.0002 | 0.00383 ± 0.00023 | 0.0043 ± 0.00026
x2 = 0.001799, x1 = 3.6e-07 | 0.00153 ± 9.2e-05 | 0.00172 ± 0.0001 | 0.00192 ± 0.00012 | 0.00213 ± 0.00013 | 0.00235 ± 0.00014
x2 = 0.001799, x1 = 5.5e-07 | 0.00167 ± 0.0001 | 0.00187 ± 0.00011 | 0.00208 ± 0.00012 | 0.00231 ± 0.00014 | 0.00256 ± 0.00015
x2 = 0.001799, x1 = 9.1e-07 | 0.00179 ± 0.00011 | 0.00201 ± 0.00012 | 0.00224 ± 0.00013 | 0.00249 ± 0.00015 | 0.00275 ± 0.00017
x2 = 0.001799, x1 = 1.09e-06 | 0.00192 ± 0.00012 | 0.00216 ± 0.00013 | 0.00241 ± 0.00014 | 0.00268 ± 0.00016 | 0.00296 ± 0.00018
x2 = 0.001799, x1 = 1.46e-06 | 0.00204 ± 0.00012 | 0.00229 ± 0.00014 | 0.00256 ± 0.00015 | 0.00283 ± 0.00017 | 0.00313 ± 0.00019
x2 = 0.001799, x1 = 1.64e-06 | 0.00212 ± 0.00013 | 0.00239 ± 0.00014 | 0.00267 ± 0.00016 | 0.00297 ± 0.00018 | 0.00329 ± 0.0002
x2 = 0.001799, x1 = 1.82e-06 | 0.00221 ± 0.00013 | 0.00248 ± 0.00015 | 0.00278 ± 0.00017 | 0.00309 ± 0.00019 | 0.00341 ± 0.0002
x2 = 0.001799, x1 = 2e-06 | 0.00227 ± 0.00014 | 0.00257 ± 0.00015 | 0.00288 ± 0.00017 | 0.00321 ± 0.00019 | 0.00356 ± 0.00021
x2 = 0.001799, x1 = 2.19e-06 | 0.00235 ± 0.00014 | – | 0.003 ± 0.00018 | 0.00334 ± 0.0002 | 0.0037 ± 0.00022
x2 = 0.001799, x1 = 2.37e-06 | – | – | – | – | 0.00384 ± 0.00023
x2 = 0.001799, x1 = 2.55e-06 | 0.00242 ± 0.00015 | 0.00275 ± 0.00017 | – | 0.00345 ± 0.00021 | –
x2 = 0.001799, x1 = 2.73e-06 | 0.00249 ± 0.00015 | 0.00284 ± 0.00017 | 0.00322 ± 0.00019 | 0.00361 ± 0.00022 | 0.00402 ± 0.00024
x2 = 0.001799, x1 = 3.1e-06 | 0.00256 ± 0.00015 | 0.00291 ± 0.00017 | 0.0033 ± 0.0002 | 0.0037 ± 0.00022 | 0.00413 ± 0.00025
x2 = 0.001799, x1 = 3.28e-06 | 0.00262 ± 0.00016 | 0.00298 ± 0.00018 | 0.00338 ± 0.0002 | 0.00379 ± 0.00023 | 0.00423 ± 0.00025
x2 = 0.001799, x1 = 3.46e-06 | – | – | – | – | 0.00434 ± 0.00026
x2 = 0.001799, x1 = 3.64e-06 | 0.00269 ± 0.00016 | 0.00306 ± 0.00018 | 0.00347 ± 0.00021 | 0.00389 ± 0.00023 | –
x2 = 0.001799, x1 = 3.83e-06 | 0.00275 ± 0.00017 | 0.00312 ± 0.00019 | 0.00354 ± 0.00021 | 0.00397 ± 0.00024 | 0.00443 ± 0.00027

[Cl-].[Cl-].[Co+2] + CCCCCCCC[N+](C)(CCCCCCCC)CCCCCCCC.[Cl-] + CCCCCCCC(=O)O
Conditions | viscosity [mPa·s]
296.1 K, 101.3 kPa, x2 = 0.4, x1 = 0.2 | 428 ± 36

CCCC[N+]1(C)CCCC1.O=S(=O)([N-]S(=O)(=O)C(F)(F)F)C(F)(F)F + O=C1CCCO1
100 kPa
Conditions | electrical conductivity [S/m] | viscosity [mPa·s]
303.15 K, x2 = 0.2019 | 0.461 ± 0.014 | 36.7 ± 1.5
308.15 K, x2 = 0.1075 | 0.459 ± 0.014 | 39.2 ± 1.6
308.15 K, x2 = 0.3004 | 0.638 ± 0.019 | 23.93 ± 0.97
308.15 K, x2 = 0.9498 | 1.31 ± 0.039 | –
313.15 K, x2 = 0.7009 | 1.67 ± 0.05 | 5.75 ± 0.23
313.15 K, x2 = 0.9498 | 1.41 ± 0.042 | –
318.15 K, x2 = 0.2019 | 0.705 ± 0.021 | 22.28 ± 0.9
318.15 K, x2 = 0.8509 | 2.23 ± 0.067 | –
318.15 K, x2 = 0.9498 | 1.5 ± 0.045 | –
323.15 K, x2 = 0.3004 | 0.905 ± 0.027 | 15.24 ± 0.62
323.15 K, x2 = 0.5999 | 1.57 ± 0.047 | 6.44 ± 0.26
323.15 K, x2 = 0.7009 | 1.98 ± 0.059 | 4.7 ± 0.19
323.15 K, x2 = 0.9498 | 1.6 ± 0.048 | –

CCCCO + CCCCCCCCCCCC[N+](C)(C)Cc1ccccc1.O=S(=O)([N-]S(=O)(=O)C(F)(F)F)C(F)(F)F
101 kPa, x2 = 0
Conditions | viscosity [mPa·s]
298.15 K | 2.52 ± 0.25
308.15 K | 1.98 ± 0.2
313.15 K | 1.75 ± 0.17
343.15 K | 0.92 ± 0.092
348.15 K | 0.845 ± 0.085

CCCCCCCCn1cc[n+](C)c1.F[B-](F)(F)F + O
100 kPa
Conditions | viscosity [mPa·s]
298.15 K, x2 = 0.9487 | 5.25 ± 0.26
308 K, x1 = 0.5482 | 34.91 ± 0.76

Reference: the CheMixHub ionic liquid set
